Experimental data from patent US20110189293A1, “THERAPEUTIC REGIMENS FOR THE TREATMENT OF IMMUNOINFLAMMATORY DISORDERS” (CombinatoRx, Incoporated, priority 2007, published 2011).

Legend:
[1] = cited from earlier work; for Equivalent dose, equal to 5 mg prednisolone: BNF guidelines
[2] = Equivalent corticosteroid dosing (BNF clinical dosing equivalence); settings: BNF guidelines
Method: Equivalent potency in clinical dosing is well known.
The BNF guidelines are included in Table 2 below. More specifically, Table 2 provides doses of corticosteroids equivalent to 5 mg of prednisolone and equivalent to 1 mg of prednisolone when administered in a manner according to this invention.

| Compound | Equivalent dose, equal to 5 mg prednisolone [1] [mg] | Equivalent dose, equal to 1 mg prednisolone [2] [mg] | broadly similar dose from clinical dosing equivalence ([1]; nasal administration, BNF 37 March 1999) [µg] |
| --- | --- | --- | --- |
| CC(=O)OCC(=O)[C@@]12N=C(C)O[C@@H]1C[C@H]1[C@@H]3CCC4=CC(=O)C=C[C@]4(C)[C@H]3[C@@H](O)C[C@@]12C [Deflazacort] | 6 | 1.2 |  |
| C[C@]12CCC(=O)C=C1CC[C@@H]1[C@@H]2[C@@H](O)C[C@@]2(C)[C@H]1CC[C@]2(O)C(=O)CO [Hydrocortisone] | 20 | 4 |  |
| C[C@]12C=CC(=O)C=C1CC[C@H]1[C@@H]3C[C@@H](O)[C@](O)(C(=O)CO)[C@@]3(C)C[C@H](O)[C@@]12F [Triamcinolone] | 4 | 0.8 | 110 |
| CC(=O)OCC(=O)[C@@]1(O)CC[C@H]2[C@@H]3CCC4=CC(=O)CC[C@]4(C)[C@H]3C(=O)C[C@@]21C [cortisone acetate] | 25 | 5 |  |
| methyl prednisone | 4 | 0.8 |  |
